Results published in patent US7851637B2, “Compounds and methods for inhibiting the interaction of BCL proteins with binding partners” (Infinity Pharmaceuticals, Inc., priority 2004, dated 2010).
pKi: −log10 of the molar value.

Key:
[1] = molecular target: Bcl-2 (Homo sapiens, UniProt P10415); assay: Bcl-2 binding affinity analysis (fluorescence polarization binding assay)
From the text: (§1) Bcl-2 and Bcl-xL binding can be determined using a variety of known methods. One such assay is a sensitive and quantitative in vitro binding assay using fluorescence polarization (FP) described by Wang, J. -L.; Zhang, Z -J.; Choksi, S.; Sjam. S.; Lu, Z.; Croce, C. M.; Alnenri, E. S.; Komgold, R.; Huang, Z. Cell permeable Bcl-2 binding peptides: a chemical approach to apoptosis induction in tumor cells. Cancer Res. 2000, 60, 1498-1502).
(§2) Bcl-2 and Bcl-xL binding affinity analysis data is presented below for various compounds of the invention.

[2] = molecular target: Bcl-xL (Homo sapiens, UniProt Q07817); assay: Bcl-xL binding affinity analysis (fluorescence polarization binding assay); set-up: scale not given here
Bcl-xL, sequence (Q07817 whole entry): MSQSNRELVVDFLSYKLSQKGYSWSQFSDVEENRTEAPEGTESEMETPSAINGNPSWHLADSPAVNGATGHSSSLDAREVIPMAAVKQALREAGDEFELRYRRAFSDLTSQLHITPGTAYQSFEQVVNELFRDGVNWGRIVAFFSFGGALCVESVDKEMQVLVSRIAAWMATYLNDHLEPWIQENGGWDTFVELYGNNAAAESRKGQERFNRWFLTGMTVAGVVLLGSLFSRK
From the text: as §1, §2

Bcl-2, sequence (P10415 whole entry): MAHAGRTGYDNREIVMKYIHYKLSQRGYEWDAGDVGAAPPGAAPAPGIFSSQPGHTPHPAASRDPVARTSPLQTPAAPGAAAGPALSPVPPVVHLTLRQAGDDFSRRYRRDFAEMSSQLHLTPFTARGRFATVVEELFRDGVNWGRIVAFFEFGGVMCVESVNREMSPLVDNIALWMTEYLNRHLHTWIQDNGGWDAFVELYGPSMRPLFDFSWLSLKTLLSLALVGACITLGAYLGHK

Row | Compound | pKi [1] | Bcl-XL binding affinity Ki [2]
1 | C[C@H](O)[C@@H]1[C@H](CO)ON(Cc2cccc(C#CC3(N)CCCCC3)c2)[C@@H]1C(=O)NCCCN(C)c1ccccc1 [Compound 28] | 4.30 to 5.22 | ♯
2 | CC(O)[C@H]1[C@@H](CO)ON(Cc2cccc(C#CC(O)c3ccc(F)cc3)c2)[C@H]1C(=O)NCCCN(C)c1ccccc1 (stereo partly shown) [Compound 29] | 5.22 to 6.10 | ♯
3 | C[C@@H]1[C@@H](NC(=O)[C@@H]2C([C@H](C)O)[C@H](CO)ON2Cc2ccc(C#CC3(N)CCCCC3)cc2)C[C@H]2C[C@@H]1C2(C)C (stereo partly shown) [Compound 30] | 5.22 to 6.10 | ♯♯
4 | CC(O)[C@H]1[C@@H](CO)ON(Cc2cccc(C#CC(C)(C)c3ccccc3)c2)[C@H]1C(=O)NCCCN(C)c1ccccc1 (stereo partly shown) [Compound 31] | 5.22 to 6.10 | ♯
5 | CC(O)C1[C@H](CO)ON(Cc2cccc(C#Cc3ccccn3)c2)[C@@H]1C(=O)N[C@H]1C[C@H]2CC([C@@H]1C)C2(C)C (stereo partly shown) [Compound 32] | 5.22 to 6.10 | ♯
6 | C[C@@H](O)[C@H]1[C@@H](CO)ON(Cc2cccc(C#CC(O)c3ccccc3Cl)c2)[C@H]1C(=O)NCCCN(C)c1ccccc1 (stereo partly shown) [Compound 33] | 5.22 to 6.10 | ♯♯
7 | C[C@H](O)[C@@H]1[C@H](CO)ON(Cc2cccc(C#C[C@]3(O)CC[C@H]4[C@@H]5CCc6cc(O)ccc6[C@H]5CC[C@@]43C)c2)[C@@H]1C(=O)NCCCN(C)c1ccccc1 [Compound 34] | < 4.30 | ♯
8 | C[C@@H]1[C@@H](NC(=O)[C@@H]2C(CO)[C@H]([C@H](C)O)ON2Cc2cccc(C#CC(C)(O)c3ccccc3)c2)C[C@H]2C[C@@H]1C2(C)C (stereo partly shown) [Compound 35] | < 4.30 | ♯
9 | C[C@@H](O)[C@H]1[C@@H](CO)ON(Cc2cccc(C#CC(O)c3ccoc3)c2)[C@H]1C(=O)NCCCN(C)c1ccccc1 (stereo partly shown) [Compound 36] | 5.22 to 6.10 | ♯♯
10 | C[C@@H](O)[C@H]1[C@@H](CO)ON(Cc2cccc(C#CC(C)(O)c3ccccc3)c2)[C@H]1C(=O)NCC1CCCCC1 (stereo partly shown) [Compound 37] | 4.30 to 5.22 | ♯
11 | C[C@H](O)[C@@H]1[C@H](CO)ON(Cc2ccc(C#CCN(C)Cc3ccccc3)cc2)[C@@H]1C(=O)NCCC1=CCCCC1 [Compound 38] | < 4.30 | ♯♯
12 | C[C@@H](O)[C@H]1[C@@H](CO)ON(Cc2cccc(C#CC(O)Cc3ccccc3)c2)[C@H]1C(=O)NCCCN(C)c1ccccc1 (stereo partly shown) [Compound 39] | 5.22 to 6.10 | ♯♯
13 | C[C@@H](O)[C@H]1[C@@H](CO)ON(Cc2cccc(C#CC3(O)CCCC3)c2)[C@H]1C(=O)NCC1CCCCC1 [Compound 40] | < 4.30 | ♯
14 | CCCCC[C@H](O)C#Cc1cccc(CN2O[C@@H](CO)[C@@H]([C@H](C)O)[C@H]2C(=O)NCCC(C)C)c1 [Compound 41] | < 4.30 | ♯
15 | C[C@@H](O)[C@H]1[C@@H](CO)ON(Cc2cccc(C#CC(O)c3ccc(-n4ccnc4)cc3)c2)[C@H]1C(=O)NCCCN(C)c1ccccc1 (stereo partly shown) [Compound 42] | 5.22 to 6.10 | ♯♯
16 | C[C@@H]1[C@@H](NC(=O)[C@@H]2C([C@H](C)O)[C@H](CO)ON2Cc2cccc(C#CC(C)(O)c3ccccc3)c2)C[C@H]2C[C@@H]1C2(C)C (stereo partly shown) [Compound 43] | 5.22 to 6.10 | ♯♯
17 | C[C@@H](O)[C@H]1[C@@H](CO)ON(Cc2cccc(C#CCCCCl)c2)[C@H]1C(=O)NCCCN(C)c1ccccc1 [Compound 44] | 4.30 to 5.22 | ♯
18 | CC(C)=CCC/C(C)=C/CNC(=O)[C@H]1[C@@H]([C@@H](C)O)[C@@H](CO)ON1Cc1cccc(C#CC(C)(O)c2ccccc2)c1 (stereo partly shown) [Compound 45] | 4.30 to 5.22 | ♯

Row | Compound | pKi [1] | Bcl-XL binding affinity Ki [2]
19 | CCCCC[C@H](O)C#Cc1ccc(CN2O[C@@H](CO)[C@@H]([C@H](C)O)[C@H]2C(=O)NCCCN(C)c2ccccc2)cc1 [Compound 46] | < 4.30 | ♯
20 | COC(=O)[C@@H](NC(=O)[C@@H]1[C@H]([C@H](C)O)[C@H](CO)ON1Cc1cccc(C#CC2(N)CCCCC2)c1)C(C)C [Compound 47] | < 4.30 | ♯♯
21 | C[C@@H](O)[C@H]1[C@@H](CO)ON(Cc2cccc(C#C[C@@H](O)c3ccccc3)c2)[C@H]1C(=O)NCCCN(C)c1ccccc1 [Compound 48] | 5.22 to 6.10 | ♯
22 | C[C@@H](O)[C@H]1[C@@H](CO)ON(Cc2cccc(C#CC(C)(O)c3ccccc3)c2)[C@H]1C(=O)NCCCN(C)c1ccccc1 (stereo partly shown) [Compound 49] | 5.22 to 6.10 | ♯
23 | CNCC#Cc1cccc(CN2O[C@@H](CO)[C@@H]([C@H](C)O)[C@H]2C(=O)N[C@H]2C[C@H]3CC([C@@H]2C)C3(C)C)c1 [Compound 50] | 5.22 to 6.10 | ♯
24 | C[C@@H]1[C@@H](NC(=O)[C@@H]2[C@H]([C@H](C)O)[C@H](CO)ON2Cc2cccc(C#CCNCc3ccccn3)c2)C[C@H]2C[C@@H]1C2(C)C [Compound 66] | 5.22 to 6.10 | 
25 | C[C@@H]1[C@@H](NC(=O)[C@@H]2[C@H]([C@H](C)O)[C@H](CO)ON2Cc2cccc(C#CCNCc3c[nH]c4ccccc34)c2)C[C@H]2C[C@@H]1C2(C)C [Compound 68] | 5.22 to 6.10 | 
26 | C[C@@H](O)[C@H]1[C@@H](CO)ON(Cc2cccc(C#CCNCc3ccc(-c4ccccc4)cc3)c2)[C@H]1C(=O)NCCCN(C)c1ccccc1 [Compound 71] | 4.30 to 5.22 | 
27 | C[C@@H](O)[C@H]1[C@@H](CO)ON(Cc2cccc(C#CCNS(=O)(=O)c3ccc(Oc4ccccc4)cc3)c2)[C@H]1C(=O)NCCCN(C)c1ccccc1 [Compound 72] | 4.30 to 5.22 | 
28 | C[C@@H]1[C@@H](NC(=O)C2[C@H]([C@H](C)O)[C@H](CO)ON2Cc2cccc(C#CCNS(=O)(=O)c3ccc(-c4ccccc4)cc3)c2)C[C@H]2C[C@@H]1C2(C)C (stereo partly shown) [Compound 73] | 5.22 to 6.10 | 
29 | C[C@@H]1[C@@H](NC(=O)[C@@H]2[C@H]([C@H](C)O)[C@H](CO)ON2Cc2cccc(C#CCNS(=O)(=O)Cc3ccccc3)c2)C[C@H]2C[C@@H]1C2(C)C [Compound 74] | 5.22 to 6.10 | 
30 | C[C@@H](O)[C@H]1[C@@H](CO)ON(Cc2cccc(C#CCNS(=O)(=O)c3cccc4cccnc34)c2)[C@H]1C(=O)NCCCN(C)c1ccccc1 [Compound 75] | 5.22 to 6.10 | 
31 | C[C@@H]1[C@@H](NC(=O)[C@@H]2[C@H]([C@H](C)O)[C@H](CO)ON2Cc2cccc(C#CCNS(=O)(=O)c3ccccc3)c2)C[C@H]2C[C@@H]1C2(C)C [Compound 76] | 5.22 to 6.10 | 
32 | C[C@@H](O)[C@H]1[C@@H](CO)ON(Cc2cccc(C#CCNC(=O)NCc3ccccc3)c2)[C@H]1C(=O)NCCCN(C)c1ccccc1 [Compound 77] | 5.22 to 6.10 | 
33 | C[C@@H]1[C@@H](NC(=O)[C@@H]2[C@H]([C@H](C)O)[C@H](CO)ON2Cc2cccc(C#CCNC(=O)NCc3ccccc3)c2)C[C@H]2C[C@@H]1C2(C)C [Compound 78] | 5.22 to 6.10 | 
34 | C[C@@H](O)[C@H]1[C@@H](CO)ON(Cc2cccc(C#CCNC(=O)Nc3ccccc3)c2)[C@H]1C(=O)NCCCN(C)c1ccccc1 [Compound 79] | 5.22 to 6.10 | 
35 | C[C@@H](O)[C@H]1[C@@H](CO)ON(Cc2cccc(C#CCNC(=O)NC3CC3c3ccccc3)c2)[C@H]1C(=O)NCCCN(C)c1ccccc1 (stereo partly shown) [Compound 80] | 5.22 to 6.10 | 
